T1: Solute carrier organic anion transporter family member 1B3 (OATP1B3) (Homo sapiens, UniProt Q9NPD5)
T1 sequence (Q9NPD5 whole entry): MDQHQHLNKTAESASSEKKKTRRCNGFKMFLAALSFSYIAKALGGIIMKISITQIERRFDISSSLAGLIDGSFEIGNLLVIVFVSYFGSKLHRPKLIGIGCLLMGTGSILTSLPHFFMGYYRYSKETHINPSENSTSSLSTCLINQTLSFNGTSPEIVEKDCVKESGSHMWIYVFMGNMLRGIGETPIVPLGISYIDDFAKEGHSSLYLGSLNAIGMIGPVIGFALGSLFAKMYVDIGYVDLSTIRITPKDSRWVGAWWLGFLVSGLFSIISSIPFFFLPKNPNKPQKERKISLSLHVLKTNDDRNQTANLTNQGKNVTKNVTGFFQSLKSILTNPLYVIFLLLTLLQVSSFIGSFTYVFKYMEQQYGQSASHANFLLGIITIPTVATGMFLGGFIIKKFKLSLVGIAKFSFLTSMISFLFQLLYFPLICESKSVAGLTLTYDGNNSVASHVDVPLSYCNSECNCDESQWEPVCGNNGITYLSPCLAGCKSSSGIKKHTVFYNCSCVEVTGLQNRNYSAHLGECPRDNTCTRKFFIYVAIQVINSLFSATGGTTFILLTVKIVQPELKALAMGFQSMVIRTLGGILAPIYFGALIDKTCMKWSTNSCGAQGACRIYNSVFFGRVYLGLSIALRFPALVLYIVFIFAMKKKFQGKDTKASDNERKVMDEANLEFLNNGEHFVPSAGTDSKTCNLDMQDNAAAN

B1: Solute carrier organic anion transporter family member 1B2 (Rattus norvegicus) (protein)
chain: MDHTQQSRKAAEAQPSRSKQTRFCDGFKLFLAALSFSYICKALGGVVMKSSITQIERRFDIPSSISGLIDGGFEIGNLLVIVFVSYFGSKLHRPKLIGIGCFIMGIGSILTALPHFFMGYYKYAKENDIGSLGNSTLTCFINQMTSPTGPSPEIVEKGCEKGLKSHMWIYVLMGNMLRGIGETPIVPLGISYLDDFAKEGHTSMHLGTLHTIAMIGPILGFIMSSVFAKIYVDVGYVDLNSVRITPNDARWVGAWWLSFIVNGLLCITSSIPFFFLPKIPKRSQEERKNSVSLHAPKTDEEKKHMTNLTKQEEQDPSNMTGFLRSLRSILTNEIYVIFLILTLLQVSGFIGSFTYLFKFIEQQFGRTASQANFLLGIITIPTMATAMFLGGYIVKKFKLTSVGIAKFVFFTSSVAYAFQFLYFPLLCENKPFAGLTLTYDGMNPVDSHIDVPLSYCNSDCSCDKNQWEPICGENGVTYISPCLAGCKSFRGDKKPNNTEFYDCSCISNSGNNSAHLGECPRYKCKTNYYFYIILQVTVSFFTAMGSPSLILILMKSVQPELKSLAMGFHSLIIRALGGILAPIYYGAFIDRTCIKWSVTSCGKRGACRLYNSRLFGFSYLGLNLALKTPPLFLYVVLIYFTKRKYKRNDNKTLENGRQFTDEGNPDSVNKNGYYCVPYDEQSNETPL

How the values were obtained:
[1] = biological target: T1, Solute carrier organic anion transporter family member 1B3 (OATP1B3); experiment: (§1) TP_TRANSPORTER: uptake in Xenopus laevis oocytes; details: Xenopus laevis oocytes expressing OATP1B3 (SLCO1B3)
[2] = substrate: CSCC[C@H](NC(=O)[C@H](Cc1ccc(OS(=O)(=O)O)cc1)NC(=O)[C@@H](N)CC(=O)O)C(=O)NCC(=O)N[C@@H](Cc1c[nH]c2ccccc12)C(=O)N[C@@H](CCSC)C(=O)N[C@@H](CC(=O)O)C(=O)N[C@@H](Cc1ccccc1)C(N)=O; experiment: as §1; format: functional, cell-based, Oocyte

Molecule	Km [1]	Km [2]
CSCC[C@H](NC(=O)[C@H](Cc1ccc(OS(=O)(=O)O)cc1)NC(=O)[C@@H](N)CC(=O)O)C(=O)NCC(=O)N[C@@H](Cc1c[nH]c2ccccc12)C(=O)N[C@@H](CCSC)C(=O)N[C@@H](CC(=O)O)C(=O)N[C@@H](Cc1ccccc1)C(N)=O [SINCALIDE]	11.1 µM	–
B1	–	14.9 µM

— ChEMBL document CHEMBL2074523, “Hepatic uptake of cholecystokinin octapeptide by organic anion-transporting polypeptides OATP4 and OATP8 of rat and human liver” (Gastroenterology, 2001)
